The results in this text go back to PMC11154717, “Evaluation of Novel Spiro-pyrrolopyridazine Derivatives as Anticancer Compounds: In Vitro Selective Cytotoxicity, Induction of Apoptosis, EGFR Inhibitory Activity, and Molecular Docking Analysis” (ACS Omega, 2024).

Assay type in all cases: cell-based, human
Assay [1] relates to nontumorigenic HEK-293 cells. The experiment in a line: XTT cell viability assay, HEK-293. As to the method: (§1) Human breast cancer (MCF-7), human lung cancer (H69AR), and human prostate cancer (PC-3) human nontumorigenic HEK-293 cells were obtained from the Health Protection Agency (UK) and Interlab Cell Line Collection (ICLC, Italy). Cells were maintained in RPMI medium (Sigma) containing 10% heat-inactivated fetal bovine serum, 1% penicillin, and 1% L-glutamine in a 37° humidified CO2 incubator.
(§2) XTT (2,3-bis(2-methoxy-4-nitro-5-sulfophenyl)-2H-tetrazolium-5-carboxanilide) cell viability test was used to determine the cytotoxic activities of SPPs, which were dissolved in dimethyl sulfoxide (DMSO). Cells were seeded in 96-well plates at a density of 10^4/well and treated with increasing concentrations of SPP (1–250 μM) for 24, 48, and 72 h. After the incubation period, 100 μL of XTT was added to all experimental wells, and 96-well plates were incubated at 37 °C for 4 h. After the color change was observed, the absorbance values of the wells were recorded at 570 nm in the microplate reader (Tecan). The IC50 values for all synthesized compounds, representing the concentration needed to inhibit 50% of cancer cell proliferation, were determined using Biosoft CalcuSyn 2.1 software.[13] The following formula was used to calculate selectivity indexes (SIs), which represent the cytotoxic selectivity of SPPs against cancer cells and normal cells (HEK-293): […]
For orientation: Tetrazolium assays rely on reduction of a dye to a coloured formazan, in cell work by metabolically active cells.

The test system of assay [2] is MCF-7 breast cancer cells. The experiment in a line: XTT cell viability assay, MCF-7. The conditions noted are these: for IC50: XTT, 72 h. As to the method: as §1, §2
In another assay the test system is H69AR lung cancer cells. As to the kind of experiment: XTT cell viability assay, H69AR. The conditions noted are these: for IC50: XTT, 72 h. As to the method:
as §1, §2

Assay [3] has as its system PC-3 prostate cancer cells. As to the kind of experiment: XTT cell viability assay, PC-3. Particulars: for IC50: XTT, 72 h. As to the method: as §1, §2

For `c1ccc(C2=NC3(CCCCC3)c3c(-c4ccccc4)nnc(-c4ccccc4)c32)cc1` [SPP1], the IC50 in assay [1] (Homo sapiens, HEK293, 72 h) came out at 16.5 ± 1.2 µM; in assay [2] (Homo sapiens, MCF7), 21.3 ± 0.4 µM; in the assay with H69AR lung cancer cells (Homo sapiens, H69AR), 27.1 ± 0.8 µM; in assay [3] (Homo sapiens), 35.4 ± 1.6 µM.

For the compound `Cc1ccc(C2=NC3(CCCCC3)c3c(-c4ccccc4)nnc(-c4ccccc4)c32)cc1` [SPP2], the IC50 in assay [1] (Homo sapiens, HEK293, 72 h) turned out to be 37.7 ± 0.2 µM; in assay [2] (Homo sapiens, MCF7), 24.6 ± 0.3 µM; with H69AR lung cancer cells (Homo sapiens, H69AR) it was 18.7 ± 1.4 µM; in assay [3] (Homo sapiens), 44.2 ± 2.8 µM.

`Cc1cccc(C2=NC3(CCCCC3)c3c(-c4ccccc4)nnc(-c4ccccc4)c32)c1` [SPP3]: the IC50 in assay [1] (Homo sapiens, HEK293, 72 h) was 7.5 ± 1 µM; in assay [2] (Homo sapiens, MCF7), 10.4 ± 1.5 µM; in the assay on H69AR lung cancer cells (Homo sapiens, H69AR), 9.8 ± 0.7 µM; in assay [3] (Homo sapiens) it was 8.3 ± 0.6 µM. Further, the “selectivity index (SI) MCF-7” value in assay [2] (versus HEK-293) worked out at 0.72. For the same compound, in the assay with H69AR lung cancer cells (versus HEK-293), the “selectivity index (SI) H69AR” value is 0.76. In addition, in assay [3] (versus HEK-293), the “selectivity index (SI) PC-3” value is 0.90.

Turning to `CC(C)(C)c1ccc(C2=NC3(CCCCC3)c3c(-c4ccccc4)nnc(-c4ccccc4)c32)cc1` [SPP4], the IC50 in assay [1] (Homo sapiens, HEK293, 72 h) was found to be 55.3 ± 3.6 µM; in assay [2] (Homo sapiens, MCF7), 67.1 ± 0.2 µM; with H69AR lung cancer cells (Homo sapiens, H69AR), 92 ± 3.2 µM; in assay [3] (Homo sapiens) it was 85.5 ± 1.2 µM.

In the case of `COc1ccccc1C1=NC2(CCCCC2)c2c(-c3ccccc3)nnc(-c3ccccc3)c21` [SPP5], the IC50 in assay [1] (Homo sapiens, HEK293, 72 h) stood at 45.4 ± 2 µM; in assay [2] (Homo sapiens, MCF7), 40.9 ± 1.8 µM; in the assay on H69AR lung cancer cells (Homo sapiens, H69AR) it was 62.7 ± 0.7 µM; in assay [3] (Homo sapiens), 70.6 ± 2.4 µM.

With `Clc1ccc(C2=NC3(CCCCC3)c3c(-c4ccccc4)nnc(-c4ccccc4)c32)cc1` [SPP6], the IC50 in assay [1] (Homo sapiens, HEK293, 72 h) turned out to be 77.8 ± 1.7 µM; in assay [2] (Homo sapiens, MCF7) it was 48.2 ± 1.4 µM; in the assay on H69AR lung cancer cells (Homo sapiens, H69AR), 137 ± 1.6 µM; in assay [3] (Homo sapiens), 35.6 ± 0.4 µM.

`Clc1ccc(C2=NC3(CCCCC3)c3c(-c4ccccc4)nnc(-c4ccccc4)c32)cc1Cl` [SPP7]: the IC50 in assay [1] (Homo sapiens, HEK293, 72 h) came out at 55.8 ± 0.6 µM; in assay [2] (Homo sapiens, MCF7), 69.2 ± 1.2 µM; in the assay with H69AR lung cancer cells (Homo sapiens, H69AR), 72.2 ± 3.4 µM; in assay [3] (Homo sapiens) it was 21.1 ± 2.1 µM.

With `FC(F)(F)c1ccc(C2=NC3(CCCCC3)c3c(-c4ccccc4)nnc(-c4ccccc4)c32)cc1` [SPP8], the IC50 in assay [1] (Homo sapiens, HEK293, 72 h) was 38.2 ± 1.3 µM; in assay [2] (Homo sapiens, MCF7), 62.2 ± 3.5 µM; in the assay on H69AR lung cancer cells (Homo sapiens, H69AR), 71.9 ± 1.8 µM; in assay [3] (Homo sapiens) it was 35.5 ± 0.7 µM.

For `O=[N+]([O-])c1ccc(C2=NC3(CCCCC3)c3c(-c4ccccc4)nnc(-c4ccccc4)c32)cc1` [SPP9], the IC50 in assay [1] (Homo sapiens, HEK293, 72 h) turned out to be 47.5 ± 2.6 µM; in assay [2] (Homo sapiens, MCF7), 57.4 ± 2.8 µM; in the assay on H69AR lung cancer cells (Homo sapiens, H69AR) it was 62.1 ± 1.2 µM; in assay [3] (Homo sapiens) it was 89.2 ± 2.5 µM.

Take `Cc1ccc(-c2nnc(-c3ccccc3)c3c2C2(CCCCC2)N=C3c2ccccc2)cc1` [SPP11]: the IC50 in assay [1] (Homo sapiens, HEK293, 72 h) was determined as 87.7 ± 1.6 µM; in assay [2] (Homo sapiens, MCF7), 95.2 ± 2.4 µM; with H69AR lung cancer cells (Homo sapiens, H69AR) it was 75.7 ± 3.5 µM; in assay [3] (Homo sapiens) it was 80.5 ± 2.3 µM.

`Fc1ccc(-c2nnc(-c3ccccc3)c3c2C2(CCCCC2)N=C3c2ccccc2)cc1` [SPP12]: the IC50 in assay [1] (Homo sapiens, HEK293, 72 h) was 40.8 ± 2.2 µM; in assay [2] (Homo sapiens, MCF7), 12.6 ± 2.6 µM; in the assay with H69AR lung cancer cells (Homo sapiens, H69AR), 19.2 ± 0.4 µM; in assay [3] (Homo sapiens) it was 24.2 ± 0.8 µM.

In the case of `Brc1cccc(-c2nnc(-c3ccccc3)c3c2C2(CCCCC2)N=C3c2ccccc2)c1` [SPP13], the IC50 in assay [1] (Homo sapiens, HEK293, 72 h) is 52.7 ± 1.4 µM; in assay [2] (Homo sapiens, MCF7), 66.4 ± 1.2 µM; in the assay on H69AR lung cancer cells (Homo sapiens, H69AR), 70.8 ± 1.3 µM; in assay [3] (Homo sapiens), 89.7 ± 2.4 µM.

Turning to `Cc1ccc(-c2nnc(-c3ccccc3)c3c2C2(CCCCC2)N=C3c2ccsc2)cc1` [SPP14], the IC50 in assay [1] (Homo sapiens, HEK293, 72 h) worked out at 12.4 ± 0.2 µM; in assay [2] (Homo sapiens, MCF7), 41.5 ± 0.8 µM; in the assay with H69AR lung cancer cells (Homo sapiens, H69AR) it was 55.3 ± 1.6 µM; in assay [3] (Homo sapiens), 61.4 ± 0.5 µM.

`Cc1ccc(-c2nnc(-c3ccccc3)c3c2C2(CCCCC2)N=C3c2cccc(C)c2)cc1` [SPP15]: the IC50 in assay [1] (Homo sapiens, HEK293, 72 h) came to 24.1 ± 1.8 µM; in assay [2] (Homo sapiens, MCF7), 29.7 ± 2.2 µM; in the assay on H69AR lung cancer cells (Homo sapiens, H69AR), 35.2 ± 3.2 µM; in assay [3] (Homo sapiens), 2.8 ± 0.4 µM.

Regarding `Cc1cccc(C2=NC3(CCCCC3)c3c(-c4ccc(F)cc4)nnc(-c4ccccc4)c32)c1` [SPP16], the IC50 in assay [1] (Homo sapiens, HEK293, 72 h) came to 64.4 ± 2.3 µM; in assay [2] (Homo sapiens, MCF7), 58.3 ± 0.4 µM; in the assay with H69AR lung cancer cells (Homo sapiens, H69AR), 63.9 ± 2.8 µM; in assay [3] (Homo sapiens), 76.3 ± 0.2 µM.

`Cc1ccc(-c2nnc(-c3ccccc3)c3c2C2(CCCCC2)N=C3c2ccc(C(C)(C)C)cc2)cc1` [SPP17]: the IC50 in assay [1] (Homo sapiens, HEK293, 72 h) came out at 74.6 ± 0.7 µM; in assay [2] (Homo sapiens, MCF7), 61.9 ± 2.6 µM; in the assay on H69AR lung cancer cells (Homo sapiens, H69AR), 63.3 ± 1.4 µM; in assay [3] (Homo sapiens) it was 88.2 ± 3.5 µM.

As for `CC(C)(C)c1ccc(C2=NC3(CCCCC3)c3c(-c4ccc(F)cc4)nnc(-c4ccccc4)c32)cc1` [SPP18], the IC50 came out at 58.5 ± 1.3 µM in assay [1] (Homo sapiens, HEK293, 72 h); 65.8 ± 1.4 µM in assay [2] (Homo sapiens, MCF7); 77.4 ± 1.7 µM in the assay on H69AR lung cancer cells (Homo sapiens, H69AR); 59.6 ± 1.4 µM in assay [3] (Homo sapiens).

On to `CC(C)(C)c1ccc(C2=NC3(CCCCC3)c3c(-c4cccc(Br)c4)nnc(-c4ccccc4)c32)cc1` [SPP19], for which the IC50 in assay [1] (Homo sapiens, HEK293, 72 h) was 33.4 ± 1.6 µM; in assay [2] (Homo sapiens, MCF7), 38.4 ± 0.7 µM; with H69AR lung cancer cells (Homo sapiens, H69AR) it was 34.9 ± 2.1 µM; in assay [3] (Homo sapiens) it was 61 ± 2.2 µM.

Take `Clc1ccc(C2=NC3(CCCCC3)c3c(-c4cccc(Br)c4)nnc(-c4ccccc4)c32)cc1` [SPP20]: the IC50 in assay [1] (Homo sapiens, HEK293, 72 h) was found to be 18.3 ± 2.1 µM; in assay [2] (Homo sapiens, MCF7) it was 47.6 ± 2 µM; in the assay with H69AR lung cancer cells (Homo sapiens, H69AR), 140 ± 2.4 µM; in assay [3] (Homo sapiens), 24.2 ± 0.8 µM.

For the compound `Cc1ccc(-c2nnc(-c3ccccc3)c3c2C2(CCCCC2)N=C3c2ccc(C(F)(F)F)cc2)cc1` [SPP21], the IC50 in assay [1] (Homo sapiens, HEK293, 72 h) was 47.1 ± 0.4 µM; in assay [2] (Homo sapiens, MCF7), 54.7 ± 2.9 µM; in the assay with H69AR lung cancer cells (Homo sapiens, H69AR), 21.8 ± 0.6 µM; in assay [3] (Homo sapiens) it was 42.7 ± 1.6 µM.

Take `N.N.[Cl][Pt][Cl]` [cisplatin, reference compound]: the IC50 in assay [1] (72 h) turned out to be 16.4 ± 0.4 µM; in assay [2] it was 16.8 ± 2.4 µM; in the assay with H69AR lung cancer cells, 18.2 ± 0.8 µM; in assay [3], 14.9 ± 4.1 µM.

Take `C#Cc1cccc(Nc2ncnc3cc(OCCOC)c(OCCOC)cc23)c1` [erlotinib, reference compound]: the IC50 in assay [1] (Homo sapiens, HEK293, 72 h) stood at 14.7 ± 2.8 µM; in assay [2] (Homo sapiens, MCF7) it was 19.4 ± 2 µM; in the assay on H69AR lung cancer cells (Homo sapiens, H69AR), 21.5 ± 1.8 µM; in assay [3] (Homo sapiens), 18.9 ± 3.2 µM.

By IC50 is commonly meant the concentration that inhibits the measured activity by half. Read a low IC50 as inhibition by little substance.
